Assay results from publication PMC9316000, “Preclinical Drug Pharmacokinetic, Tissue Distribution and Excretion Profiles of the Novel Limonin Derivate HY-071085 as an Anti-Inflammatory and Analgesic Candidate in Rats and Beagle Dogs” (Pharmaceuticals, 2022).
Entries after “also recorded” stand apart in the source; their conditions may differ. Read-outs that look alike come from different tables or passages of the source.

Key:
[1] = Tissue distribution in rats; format: in vivo; settings: S-IG 13 mg/kg
Method: The male and female rats were euthanized by femoral artery bleeding under anesthesia after the single-dose intragastric administration of HY-071085 (13 mg/kg) for 10 min, 45 min and 4 h, and the tissues were separated for the analysis of the concentration of HY-071085 in the homogenate.
Tissue distribution in rats: Rats were randomly allocated into three groups (10 rats/group) for the tissue distribution studies. These rats were sacrificed at 10 min, 45 min and 4 h after orally administering HY-071085. Fourteen organs—the heart, liver, spleen, lung, kidney, stomach, gut, muscle, fat, skin, brain, ovary (female), womb (female) and testis (male)—were removed, washed in normal saline, and dried with filter papers immediately. The organs were accurately weighed and individually homogenized with an appropriate amount of deionized water. The tissue homogenate was stored at –80 °C until analysis.

[2] = Pharmacokinetics after single-dose intravenous administration in rats; format: in vivo, Sprague Dawley rats; settings: S-IV 3.25 mg/kg; for AUC(0-inf) / AUC / MRT / half-life: rat, plasma; for AUC: read-out: AUC0-tn
Method: The PK parameters after the intravenous administration of 3.25 mg/kg HY-071085 (before use, prepared with 5% DMSO + 95% normal saline mixture) are listed in Table 1.
In vivo PK profiling in the rats: Sprague Dawley rats (approximately 177–221 g in weight) were purchased from Shanghai Xipur-Bikai Experimental Animal Co., Ltd. (Shanghai, China). Before the experiment, several rats were randomly divided into several groups, half males and half females in each group, fasting but free to drink water for 12 h. The dosage of the rats was dependent on the drug pharmacology: the HY-071085 active pharmaceutical ingredients were administered with a dosage volume of 0.25 mL/100 g body weight. The whole-blood samples were centrifuged at 8000 rpm for 5 min, and the plasma samples were separated and stored at –80 °C until the analysis.
According to the obtained plasma concentration time data, the pharmacokinetic parameters were calculated using Phoenix WinNonlin 8.1 software. The pharmacokinetic parameters—i.e., the area under the curve (AUC), mean residence time (MRT), clearance rate (Cl/F) and steady-state apparent distribution volume (Vss/F)—were calculated by the method of moments, which was estimated according to the following formulae: AUCtn=∑Ci+Ci−1ti−ti−1/2 AUC∞=AUCtn+Cm/λ AUMCtn=∑tiCi+ti−1Ci−1ti−ti−1/2 AUMC∞=AUMCtn+Ctntn/λ+1/λ^2 MRT=AUMC∞/AUC∞ Cl/F=Dose/AUC Vss/F=Cl∗MRT where Ctn is the plasma concentration of tn at the last point after administration, and the elimination rate constant was obtained by ln(concentration) time linear regression.
Due to the drug having significant individual differences in rats, it could not be uniformly fitted with a PK atrioventricular model; as such, the pharmacokinetic parameters analyzed in this study were calculated using a non-atrioventricular model. The pharmacokinetic parameters are defined as follows: Cmax is the maximum blood concentration after administration and absorption, Tmax is the time required to reach Cmax, t1/2 is the time required to eliminate half of the plasma drug concentration after the drug distribution in the body reaches equilibrium, Cl/F is the apparent clearance rate, AUC0-tn is the area under the blood concentration time curve within the dosing interval, AUC0-∞ is the area under the plasma concentration time curve from 0 to infinity, MRT is the average time that all drug molecules stay in the body, and Vss/F is the steady-state apparent distribution volume, which is the product of the clearance rate and average residence time.

[3] = Plasma protein binding, dog plasma; format: in vitro ADME; settings: read-out: plasma protein binding rate (converted)
Method: The PPB rate in dogs was about 40% at different concentrations in the concentration range (50–400 ng/mL), and in rats it was about 75%. The PPB rate in human plasma varied greatly at different concentrations, ranging from 100% at a low drug concentration to 58% at a high drug concentration, as shown in Table 4.

[4] = Excretion in feces, urine and bile (material balance) in rats; format: in vivo, Sprague Dawley rats
Method: After the single-dose intragastric administration of HY-071085 (6.5 mg/kg) to male and female rats, their feces, urine and bile were collected at various time points within 24 h in order to analyze the excretion of HY-071085. The amount of unchanged parent compound recovered from the feces, urine and bile was negligible in rats (about 1.3% of the dose, Table 3).
Excretion in urine and feces (rats): The Sprague Dawley rats were aged approximately 6 weeks old and weighed 185–212 g at the onset of treatment. Urine and fecal samples were collected for the excretion study using metabolic cages. After the oral administration of 6.5 mg/kg HY-071085, urine and feces were collected at 0–6, 6–12 and 12–24 h. The urine volumes were recorded and transferred to centrifuge tubes. The fecal weights were recorded at each sampling period, and then those feces were dried, ground and mixed thoroughly. Then, 0.1 g feces was accurately weighed, mixed with 1 mL deionized water, and homogenized to be used as a fecal sample. All of the samples were stored at –80 °C until the analysis.
Excretion in bile (rats): The Sprague Dawley rats were approximately 6 weeks old and weighed 174–215 g at the onset of treatment. The rats were anesthetized with diethyl ether, and the bile duct was then cannulated for bile collection. After allowing recovery from surgery and anesthesia, these bile duct–cannulated rats were administered a single 6.5 mg/kg dose of HY-071085 by gastric gavage.

[5] = gavage 6.5 mg/kg, within 24 h, % of the dose

For `CC1(C)OC2CC(=O)OCC23C1C/C(=N\OCCN1CCOCC1)C1(C)C3CC[C@@]2(C)[C@H](c3ccoc3)OC(=O)C3OC312` (stereo partly drawn) [HY-071085, (12S,12aS,E)-12-(furan-3-yl)-6,6,8a,12a-tetramethyl-8-((2-morpholinoethoxy)imino)dodecahydro-1H,3H-oxireno [2,3-d]pyrano [4’,3’:3,3a]isobenzofuro [5,4-f]isochromene-3,10(9aH)-dione], the “concentration in the brain” value [1] was “extremely low”, the tissue distribution ([1]; 10 min, 45 min and 4 h) was “mainly distributed in the gastric, intestine, liver, spleen, lung and kidney tissues; also recorded: mainly distributed in most of the tissues except the brain” and the AUC(0-inf) ([2]; Sprague Dawley, female rats) was 684 ± 39.2 ng·h/mL. The AUC ([2]; Sprague Dawley, female rats) was 682 ± 225 ng·h/mL, the AUC(0-inf) ([2]; Sprague Dawley, male rats) was 740 ± 146 ng·h/mL and the MRT ([2]; Sprague Dawley, male rats) was 17.4 ± 2.4 min. For the same molecule, the AUC ([2]; Sprague Dawley, male rats) was 739 ± 146 ng·h/mL, the MRT ([2]; Sprague-Dawley, female rats) was 20.4 ± 3 min and the half-life ([2]; Sprague-Dawley, female rats) was 20.4 ± 3 min. It also gave a half-life ([2]; Sprague-Dawley, male rats) of 24 ± 6 min, a Cl/F ([2]; female rats) of 79.3 ± 4.5 mL/min/kg and a Vss/F ([2]; female rats) of 1.63 ± 0.17 L/kg. For the same molecule, the Cl/F ([2]; male rats) was 75 ± 11.8 mL/min/kg, the Vss/F ([2]; male rats) was 1.31 ± 0.18 L/kg and the fraction unbound at 50 ng/mL ([3]; 50 ng/mL, mean) was 0.622. For the same molecule, the fraction unbound at 100 ng/mL ([3]; 100 ng/mL, mean) was 0.671, the fraction unbound at 200 ng/mL ([3]; 200 ng/mL, mean) was 0.578 and the fraction unbound at 400 ng/mL ([3]; 400 ng/mL, mean) was 0.545. The fraction unbound ([3]; dog, dogs, concentration range 50–400 ng/mL) was roughly 0.6, the route of elimination ([4]; excretion and material balance) was “mainly eliminated as metabolites; also recorded: mainly eliminated by metabolism” and the “HY-071085 prototype recovered in bile” value ([4]; gavage 6.5 mg/kg, bile 0~8 h, % of the dose) was 0.206 ± 0.206%. For the same molecule, the “HY-071085 prototype recovered in feces” value [4, 5] was 0.812 ± 0.611% and the “HY-071085 prototype recovered in urine” value [4, 5] was 0.254 ± 0.164%.
